Assays:
[1] = MTT assay of metabolic activity (cell viability); type: cell-based; conditions: human, HeLa cells, 1 μM for 60 min
Experimental: Toxicity is a concern with potent intracellular delivery agents. We used an MTT assay to measure the metabolic activity of Hela cells treated with 1 μM tri-Tat A or tri-cTat B for 60 min (FIG. 4d). […] Tri-Tat A is slightly more toxic, which is consistent with the observation that the trimer forms membrane pores (cells 84.4% viable, 4 h post-treatment; 80.2% viable, 3 days post-treatment). The favourable uptake mechanism and low toxicity of tri-cTat B lead us to investigate this agent for its potential to transport biomacromolecular cargos into cells.

HeLa cells [2] = assay: Live cell confocal microscopy: cellular uptake and intracellular distribution of Tat conjugates in HeLa cells; type: cell-based, human
Experimental: The cellular uptake and intracellular distribution of Tat-trimers and monomeric controls was investigated by performing live cell confocal microscopy of HeLa (human, cervical cancer) and CHO (Chinese hamster, […]). Following washing, images were acquired using a Zeiss 780 confocal microscope fitted with an incubation chamber (FIG. 2). In accordance with observations that free Tat in the cytosol readily enters the nucleus and strongly binds to nucleoli,^29 homogenous staining of cytoplasm and nucleoli were considered as indicative of cells having accumulated free conjugate, not confined to endosomes, for quantification purposes. […] The uptake and intracellular distribution of tri-Tat A is similar in live Hela and CHO cells (FIG. 2b,d,e).
Following washing, images were acquired using a Zeiss 780 confocal microscope fitted with an incubation chamber. In accordance with observations that free Tat in the cytosol readily enters the nucleus and strongly binds to nucleoli,^29 homogenous staining of cytoplasm and nucleoli were considered as indicative of cells having accumulated free conjugate, not confined to endosomes, for quantification purposes. The results were compared to tri-Tat A (8) and tri-cTat B (17).
(§1) HeLa and CHO cells were cultured in DMEM supplemented with 10% FBS and penicillin/streptomycin. For post-wash experiments, Tat conjugate was added to the cells in serum free medium, cells incubated at 37° C. in an atmosphere of 5% CO2, culture medium removed at the desired time point, cells washed and transferred to the microscope for imaging. For time course or pre-wash experiments, cells were transferred to the microscope (incubation chamber at 37° C., 5% CO2) and Tat conjugate added directly to cell medium and cells imaged at desired time points. Co-delivery experiments were conducted by adding peptide trimer immediately followed by cargo into serum free medium. Samples were visualised using a Zeiss LSM 780 inverted confocal microscope fitted with a XLmultiS1 incubation chamber and Plan-Apochromat 63×/1.40 Oil DIC M27 objective. Images were analysed using ImageJ software. Digital adjustments and image processing are consistent throughout the manuscript, unless otherwise stated in the figure legend. Statistical analysis was carried out using GraphPad Prism 7 software and all data used for statistical analysis consists of measurements from distinct cells. Where applicable a parametric, unpaired, two-tailed t-test was used for statistical testing.

HeLa cells [3] = assay: Time course of uptake in Hela cells (continuous live cell confocal microscopy, ROI profile analysis); type: cell-based, human; conditions: 1 μM; representative cells
Experimental: To better understand the mechanism by which tri-Tat A and tri-cTat B enter the cytosol and the nucleus, we investigated the uptake kinetics of the conjugates during the first 15 min after their addition to Hela cells using confocal live cell microscopy. Tri-Tat A (FIG. 3a) or tri-cTat B (FIG. 3b) (1 μM) were added to the cells and images acquired from 1 min to 15 min at 60 sec intervals. The two trimers show distinct uptake patters into Hela cells; to better understand the difference in uptake kinetics, we drew cross sectional profile plots through representative cells treated with tri-Tat A (FIG. 3c) and tri-cTat B (FIG. 3d). […] To investigate whether findings in individual cells also apply to larger populations, we extended the plot profile analysis by designating regions of interest (ROI) corresponding to plasma membrane, cytosol (excluding endosomes), nucleus, and nucleoli along the cross section, using information from brightfield images.^30 Average fluorescence intensities for each ROI, at each time point, in six cells per treatment group were calculated and plotted in FIGS. 3e-3h.
as §1

## N=C(N)NCCC[C@@H]1NC(=O)[C@H](CCCNC(=N)N)NC(=O)[C@H](CCCNC(=N)N)NC(=O)[C@H](CCC(N)=O)NC(=O)[C@H](CCCNC(=N)N)NC(=O)[C@H](CCCNC(=N)N)NC(=O)[C@H](CCCCN)NC(=O)[C@H](CCCCN)NC(=O)[C@H](CCCNC(=N)N)NC(=O)[C@H](CCCCn2cc(COCC(COCc3cn(CCCCCCNC(=O)c4ccc5c(c4)C(=O)OC54c5ccc(N)c(S(=O)(=O)O)c5Oc5c4ccc(N)c5S(=O)(=O)O)nn3)(COCc3cn(CCCC[C@@H]4NC(=O)CC[C@@H](C(N)=O)NC(=O)[C@H](CCCNC(=N)N)NC(=O)[C@H](CCCNC(=N)N)NC(=O)[C@H](CCCNC(=N)N)NC(=O)[C@H](CCC(N)=O)NC(=O)[C@H](CCCNC(=N)N)NC(=O)[C@H](CCCNC(=N)N)NC(=O)[C@H](CCCCN)NC(=O)[C@H](CCCCN)NC(=O)[C@H](CCCNC(=N)N)NC4=O)nn3)COCc3cn(CCCC[C@@H]4NC(=O)CC[C@@H](C(N)=O)NC(=O)[C@H](CCCNC(=N)N)NC(=O)[C@H](CCCNC(=N)N)NC(=O)[C@H](CCCNC(=N)N)NC(=O)[C@H](CCC(N)=O)NC(=O)[C@H](CCCNC(=N)N)NC(=O)[C@H](CCCNC(=N)N)NC(=O)[C@H](CCCCN)NC(=O)[C@H](CCCCN)NC(=O)[C@H](CCCNC(=N)N)NC4=O)nn3)nn2)NC(=O)CC[C@@H](C(N)=O)NC1=O (some centres unmarked) [tri-cTat B]
[1]; 4 h post-treatment
  viability at 4 h, 1 µM: 94.3%
[1]; 3 days post-treatment
  viability at 72 h, 1 µM: 96.5%
HeLa cells [2]; 1 μM, 60 min, serum-free
  transduction efficacy in comparison (average fluorescence intensity per cell, percentage of transduced cells): more effective at cellular transduction in comparison to tri-cTat A
HeLa cells [2]; HeLa cells, 1 μM, 60 min, serum-free DMEM, post-wash
  cellular uptake and intracellular distribution: taken up into the cytosol and nucleoli
HeLa cells [2]; serum free, 1 μM
  number of transduced cells: 61%
HeLa cells [2]; serum supplemented medium, 1 μM, 60 min
  number of transduced cells: 42%
HeLa cells [2]; serum supplemented medium, 2 μM, 60 min
  number of transduced cells: 79%
HeLa cells [3]
  association with plasma membrane (profile plots): little association with plasma membrane

— patent US20250295795A1, “PEPTIDE” (priority 2021, published 2025)
